Test results reported in PubChem BioAssay (NCI).
Where “and” joins values, the source holds several entries; their conditions need not be identical. Equal entries are not always repeated.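 Growth conditions: 96-well plates. Treatment: test compound, 48 hours, 5 concentrations. Analysis: linear interpolation between bracketing concentrations; unreached endpoints set to highest concentration. GI50 marks 50% less growth. Definition used: TGI = concentration required for complete inhibition of growth.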

What was measured:
Assay in all cases: growth of human tumour cells (NCI), 48 h
[1] = system: HOP-18 NSCLC
[2] = system: SF-268 CNS
[3] = system: HCT-116 colon
[4] = system: SK-MEL-2 melanoma
[5] = system: A498 renal
[6] = system: HT29 colon
[7] = system: HCT-15 colon
[8] = system: DMS 114 small cell lung
[9] = system: HCC-2998 colon
[10] = system: T-47D breast

Row | Structure (SMILES) | TGI [1] | TGI [2] | TGI [3] | TGI [4] | TGI [5] | TGI [6] | TGI [7] | TGI [8] | GI50 [2] | GI50 [9] | GI50 [3] | GI50 [4] | GI50 [5] [µM] | GI50 [6] | GI50 [10] | TGI [10] | GI50 [7] | TGI [9] | GI50 [1] | GI50 [8] [µM]
1 | CCOc1ccc2c(c1)[n+]([O-])c(-c1ccc(Cl)cc1)c(N)[n+]2[O-] | > 100 µM | > 100 µM | > 100 µM | > 100 µM | > 100 µM | > 100 µM | > 100 µM | > 100 µM |  |  |  |  |  |  |  |  |  |  |  | 
2 | Cc1cc(O)c(C(C)C)cc1S(=O)(=O)O (tested in a mixture with another compound) |  |  |  | 2.46 µM | 2.16 µM | 1.1 µM |  | > 100 µM | 0.797 µM | 229 nM | 343 nM | 0.502 µM | 0.244 | 337 nM | 856 nM | 4.79 µM | 0.38 µM |  |  | 
3 | CN1C(=Nc2ccccc2)SC1=Nc1ccccc1 | > 100 µM | > 100 µM | > 100 µM | > 100 µM | > 100 µM | > 100 µM | > 100 µM | > 100 µM |  |  |  |  |  |  |  |  |  | > 100 µM |  | 
4 | Oc1c(C(Nc2cccc3cccnc23)c2ccccc2)ccc2cccnc12 (configuration not stated) | 93.2 µM | > 100 µM | > 100 µM |  | 66.6 µM |  |  | 15.6 µM |  |  |  |  |  |  |  |  |  | > 100 µM |  | 
5 | COc1cc(C[C@H]2c3cc(OC)c(OC)cc3CCN2C)c(Oc2cc3c(cc2OC)-c2c(OC)c(OC)cc4c2[C@H](C3)N(C)CC4)cc1OC | 40.9 µM and 29.9 µM | 31 µM and 28.4 µM | 14 µM and 22.4 µM | 18.5 µM and 28.8 µM | 25.1 µM and 21.2 µM | 17.4 µM and 14.6 µM | 26.4 µM and 23.4 µM | 18 µM and 14.4 µM | 14.3 µM | 4900 nM | 10400 nM | 14.9 µM |  | 4050 nM |  | 23.4 µM | 10.8 µM | 15.1 µM and 14.4 µM | 20.1 µM and 15.8 µM | 4
6 | CCN(CC)CCCC(C)Nc1ccnc2cc(Oc3ccccc3)ccc12 (configuration not stated) |  | 19.9 µM and 92.4 µM | 13.1 µM and 21.9 µM | 8.96 µM and 5.68 µM | 7.85 µM and 28.5 µM | 8.37 µM and 12 µM | 28.3 µM and 20.1 µM |  | 6.48 µM and 8.36 µM | 2340 nM and 6920 nM | 2590 nM and 3030 nM | 3.05 µM and 2.36 µM |  | 627 nM and 1120 nM | 1680 nM and 2390 nM | 3.32 µM and 6.19 µM | 4.34 µM and 3.94 µM | 7.94 µM and 36.9 µM |  | 
7 | COc1cc([C@@H]2OC[C@@H]3C(c4cc(OC)c5c(c4)OCO5)OC[C@@H]32)cc(OC)c1OC (some centres not stated) |  | > 100 µM | > 100 µM | > 100 µM | > 100 µM | > 100 µM | > 100 µM |  |  |  |  |  |  |  |  | > 100 µM |  | > 100 µM |  | 
8 | CC(C)N(Cc1ccccc1)c1c(S)ssc1=S |  | 31.7 µM | 26.8 µM | 31.1 µM | 4.12 µM | 9.59 µM | 13.5 µM |  | 2.86 µM | 4360 nM | 2720 nM | 3.53 µM | 0.723 | 2290 nM | 1170 nM | 18.6 µM | 3.16 µM | 74 µM |  | 
9 | CCOc1ccccc1N1C(=O)C(=O)C(c2nc3ccccc3o2)C(=O)C1=O | > 100 µM | > 100 µM | > 100 µM | > 100 µM | > 100 µM | > 100 µM | > 100 µM | > 100 µM |  |  |  |  |  |  |  |  |  | > 100 µM |  | 
10 | Cc1ccc(Nc2n[nH]c(=S)s2)cc1C |  | > 100 µM | > 100 µM | > 100 µM | > 100 µM | > 100 µM | > 100 µM |  |  |  |  |  |  |  |  | > 100 µM |  | > 100 µM |  | 
11 | C#Cc1c(F)ccc2cc(O)cc(-c3ncc4c(N5CC6CCC(C5)N6)nc(OC[C@@]56CCCN5C[C@H](F)C6)nc4c3F)c12 |  | 25.4 µM | 14 µM | 32.9 µM | 34.2 µM | 31 µM | > 50.6 µM |  | 12 µM | 1320 nM | 2620 nM | 16.9 µM | 15.7 | 9990 nM | 16300 nM | 40.1 µM | 34.7 µM | 17.5 µM |  | 
12 | COc1ccc2c(c1)c(=O)oc1cc(OC/C(C)=N\O)ccc12 |  | > 100 µM | > 100 µM | > 100 µM | > 100 µM | > 100 µM | > 100 µM |  | 37.7 µM | > 100000 nM | > 100000 nM | > 100 µM | > 100 | > 100000 nM | > 100000 nM | > 100 µM | > 100 µM | > 100 µM |  | 
13 | Cc1cc2c(cc1C)N(C(=O)CCl)CC(=O)N2 |  | 11.6 µM | 9.77 µM | 14.4 µM | 18.2 µM | 3.73 µM | 3.42 µM |  | 3.47 µM | 2880 nM | 2530 nM | 4.2 µM | 3.5 | 2010 nM | 1970 nM | 3.99 µM | 1.74 µM | 8.91 µM |  | 
14 | CP1(=O)CCCCC1 | > 100 µM | > 100 µM | > 100 µM | > 100 µM |  | > 100 µM | > 100 µM | > 100 µM |  |  |  |  |  |  |  |  |  | > 100 µM |  | 
15 | O=[N+]([O-])c1cc(C(F)(F)F)cc([N+](=O)[O-])c1CCl | 3.6 µM | 27.2 µM | 2.46 µM | > 26.7 µM | 38 µM | 4.03 µM |  | 1.95 µM |  |  |  |  |  |  |  |  |  |  |  | 
16 | COc1cc(OC(=O)c2ccccc2)cc2c1C(=O)C=CC2=O | 41.5 µM | 36.3 µM | 13.5 µM | 40.4 µM | 37.8 µM | 39.8 µM | 31.4 µM | 30.2 µM |  |  |  |  |  |  |  | 4.73 µM |  |  |  | 
